Data on 31 compounds can be found in the supplement of paper PMC6723410.

This test relates to GUMC-403. In words: viability at highest tested concentration (max response) relative to DMSO (% of DMSO control); higher = less cytotoxic. The conditions noted are these: library / dose series: MIPE library, 11-point 1:3 dilution, 48 h. Summed up: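 Plates of 1536 wells were seeded with 700 patient-derived GUMC-403 papilloma cells per well, grown by conditional reprogramming, in 5 μL F + Y medium and kept overnight at 37 °C. Compounds followed at 23 nL by pin tool over an 11-point 1:3 series, for 48 h. After a CellTiter-Glo luminescence read on a ViewLux, signals were set against vehicle wells as 100% and empty wells as 0%. The reported number is viability at the highest tested concentration relative to vehicle control.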

Each structure is given as a SMILES string.

`CN1CCN(CCCN2c3ccccc3Sc3ccc(C(F)(F)F)cc32)CC1` gave a viability (top concentration 46.1 µM) of 79.1.

As for `COc1cc(N2CCN(C)CC2)ccc1Nc1nc(N)c(C(=O)c2c(Cl)cccc2Cl)s1`, the viability (top concentration 46.1 µM) turned out to be 120.

In the case of `CNC(=O)c1ccc(N2C(=S)N(c3ccc(C#N)c(C(F)(F)F)c3)C(=O)C23CCC3)cc1F`, where the note is “top concentration 46.1 µM”, the viability is 81.8.

`CC(C)[C@@H](N(CCCN)C(=O)C1=CC=C(C)C=C1)C/2=C(\CC3=CC=CC=C3)C(=O)C4=C(O2)C=C(Cl)C=C4`: under “top concentration 46.1 µM”, the viability was 119.

For the compound `CCCCCCCCCCCCCCCCCCOP(=O)([O-])OC1CC[N+](C)(C)CC1`, for the setting “top concentration 23 µM”, the viability worked out at 127.

For the setting “top concentration 46.1 µM”, `Nc1ccc([S+](=O)([O-])Nc2ccnn2-c2ccccc2)cc1` displayed a viability of 133.

In turn, `CCN1CCN(c2ccc(Nc3cc(N(C)C(=O)Nc4c(Cl)c(OC)cc(OC)c4Cl)ncn3)cc2)CC1` registered a viability (top concentration 46.1 µM) of 117.

`O=c1[nH]c(=O)n([C@H]2C[C@H](O)[C@@H](CO)O2)cc1/C=C/Br`: the viability (top concentration 46.1 µM) came out at 116.

Compound `O=C(Nc1ccc(OC(F)(F)F)cc1)c1sccc1NCc1ccnc2ccccc12` returned a viability (top concentration 46.1 µM) of 91.2.

Where the note is “top concentration 46.1 µM”, `O=c1c(-c2ccc(O)cc2)coc2cc(O[C@@H]3O[C@H](CO)[C@@H](O)[C@H](O)[C@H]3O)ccc12` came in with a viability of 135.

The compound `N[C@@H]1CONC1=O` had a viability (top concentration 46.1 µM) of 127.

Regarding `CCCCCCCCCCCCCCCC(=O)O[C@@H]1[C@@H](O)[C@@H](O)[C@@H]([C@H](NC(=O)[C@@H]2C[C@@H](CCC)CN2C)[C@H](C)Cl)O[C@@H]1SC.Cl`, the viability (top concentration 46.1 µM) was determined as 116.

For the compound `CCOC(=O)c1ccc(OC(=O)CCCCCNC(=N)N)cc1`, under “top concentration 46.1 µM”, the viability is 138.

As to `C1COC(NC(C2CC2)C2CC2)=N1`, the viability (top concentration 46.1 µM) was 91.2.

Compound `COc1ccc(C[C@@H](C)[C@@H](C)Cc2ccc(OC)c(OC)c2)cc1OC` gave a viability (top concentration 46.1 µM) of 122.

For `CC(C)(Oc1ccc(C2CC2(Cl)Cl)cc1)C(=O)O` (stereo unspecified), the viability (top concentration 92.2 µM) was found to be 101.

`CC1=C(/C=C/C(C)=C/C=C/C(C)=C/C=C/C=C(C)/C=C/C=C(C)/C=C/C2=C(C)CCCC2(C)C)C(C)(C)CCC1` had a viability (top concentration 46.1 µM) of 113.

In the case of `CN1C2CCC1CC(OC(=O)C(CO)c1ccccc1)C2` (stereo unspecified), the viability (top concentration 46.1 µM) came to 109.

Regarding `CCN(C)C(=O)Oc1cccc([C@H](C)N(C)C)c1`, the viability (top concentration 46.1 µM) worked out at 125.

`CC[C@H](C)C(=O)O[C@H]1C[C@@H](C)\C=C2\C=C/[C@H](C)[C@H](CC[C@@H]3C[C@@H](O)CC(=O)O3)[C@@H]12`: the viability (top concentration 46.1 µM) is 61.5.

On to `O=C(NCCO[N+](=O)[O-])c1cccnc1`, for which the viability (top concentration 46.1 µM) worked out at 108.

Where the note is “top concentration 46.1 µM”, `C[C@]\12CC[C@H](O)CC1=C/CC3C2CC[C@@]\4(C)C3C\C=C4[N]5C=NC6=C5C=CC=C6` (stereo partly specified) came in with a viability of 108.

Consider `CN(C)CC[C@H](c1ccc(Cl)cc1)c1ccccn1`, for which the viability (top concentration 46.1 µM) amounted to 112.

Regarding `C[C@H](CCC(=O)O)[C@H]1CCC2C3C[C@H](O)[C@@H]4C[C@H](O)CC[C@]4(C)C3CC[C@@]21C` (stereo partly specified), for the setting “top concentration 46.1 µM”, the viability came out at 108.

Where the note is “top concentration 46.1 µM”, `CC(=O)N(C)C1(c2ccccc2)CCN(CCC[C@]2(c3ccc(Cl)c(Cl)c3)CCCN(C(=O)c3ccccc3)C2)CC1` displayed a viability of 96.7.

In turn, `O=C/1NC(=O)C(=C1C2=CN=C3C=CC=C[N]23)/C4=C[N]5CCN(CC6=C5C4=CC=C6)C(=O)N7CCOCC7` displayed a viability (top concentration 46.1 µM) of 60.5.

`COC[C@H](c1ccc(C(F)(F)F)cc1)N1CCN(C2(C)CCN(C(=O)c3c(C)ncnc3C)CC2)C[C@H]1C.O=C(O)/C=C\C(=O)O` registered a viability (top concentration 46.1 µM) of 57.9.

`CN1CCCN(C(=O)c2cccc(-c3ccc(/C=C4/C(=O)Nc5ccc(Cl)cc54)o3)c2)CC1` registered a viability (top concentration 46.1 µM) of 97.7.

Turning to `CC1CCN(c2cc(N3CCN(C)CC3)ccc2NC(=O)c2cc(C#N)c[nH]2)CC1`, the viability (top concentration 46.1 µM) was 116.

Compound `COc1ccc2c(c1)c(CC(=O)O)c(C)n2C(=O)c1ccc(Cl)cc1` showed a viability (top concentration 46.1 µM) of 111.

Turning to `O=C1C[C@@H](c2ccc(O)cc2)Oc2cc(O)cc(O)c21`, for the setting “top concentration 46.1 µM”, the viability worked out at 113.
